The source of these data is US8883793B2, “Tubulin inhibitors and methods of using the same” (Development Center for Biotechnology, priority 2010, dated 2014).

Usually inhibition stands for the share of the control response that was lost under treatment. As usually defined, the IC50 is the concentration that gives 50% inhibition.

The structures appear in SMILES notation.

One experiment deals with KB cell. Briefly: MTS assay, growth inhibition of KB cells. It is filed as cell-based. Particulars: Homo sapiens, at 10 μM concentration, incubated for 72 h, read-out: Inhibition rate (%) (growth inhibition rate of MTS assay). In a few lines:
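KB cells were allowed 24 h to attach before a 72 h exposure to compound at 10 μM. Viability was measured by MTS/PMS reduction, with absorbance read at 490 nm after 3 h. Values are reported as percent growth inhibition.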
Background: Tetrazolium dyes change colour on reduction, which living cells bring about.

For a further experiment, the system named is biotinylated tubulin. In words: Colchicine competitive-binding assay. Particulars: at 10 μM concentration; 3H-colchicine; left column pair of Table 7. The protocol:
The colchicine competitive-binding assay was done by using the Colchicine Site competitive Assay Kit (Cytoskeleton, Inc.), streptavidin-coated yttrium SPA beads(GE Healthcare, Inc.), and ^3H-colchicine(PerkinElmer, Inc.). Briefly, the binding mixture includes 1 μL^3H-labeled ligand (specific activity […]), and 1 μg biotinylated tubulin and 88 μg SPA beads in 200 μL assay buffer. The test compound and ^3H-labeled ligand were added before tubulin. After incubation at 37° C. for 2 hours, the SPA beads were allowed to settle down for 24 hours at room temperature, and scintillation counting was done on the TopCount Microplate Scintillation Counter.

For the next experiment, the system named is A375. In words: MTS assay, A375. It counts as cell-based. Particulars: Homo sapiens, A-375, 72 h, read-out: IC50 from MTS assay. Here is the method: (§1) MTS assay was performed in determining the growth inhibition of cancer cells. MTS ((3-(4,5-dimethylthiazol-2-yl)-5-(3-carboxymethoxyphenyl)-2-(4-sulfophenyl)-2H-tetrazolium)), in the presence of phenazine methosulfate (PMS) and reductases, produces a formazan product that has an absorbance maximum at 490-500 nm. MTS assays (and closely related MTT assay) are commonly used to measure cell viabilities or survivals.
(§2) Briefly, KB/Hela, NCI-H460, A375, Colo205, HCT-116, U937, MCF-7, MDA-MB-231, A549, H1975 cells were seeded into 96-well plate at 4000, 4000, 2000, 2000, 2000 cells/well. After 24 h for attachment, test compound was added into each well and incubated for 72 h. A total of 20 μl of MTS reaction reagent containing the MTS (Promega, Madison, Wis.) and PMS in a ratio of 20:1 was added into each well to react with dehydrogenase enzyme in survival cells. After 3 h, the absorbance at 490 nm was monitored using Emax precision microplate reader (Molecular Devices, Sunnyvale, Calif.).

In a further experiment the test system is MDA-MB-231. Briefly: MTS assay, MDA-MB-231. It counts as cell-based. Particulars: Homo sapiens, 72 h, read-out: IC50 from MTS assay. Here is the method:
as §1, §2

The subject of the next experiment is Colo205. Briefly: MTS assay, Colo205. Particulars: Homo sapiens, COLO 205, 72 h, read-out: IC50 from MTS assay. It is filed as cell-based. Here is the method: as §1, §2
The subject of a further experiment is H1975. In words: MTS assay, H1975. It counts as cell-based. Particulars: Homo sapiens, NCI-H1975, 72 h, read-out: IC50 from MTS assay. The protocol: as §1, §2
A further experiment relates to A549. Briefly: MTS assay, A549. Particulars: Homo sapiens, 72 h, read-out: IC50 from MTS assay. It counts as cell-based. Here is the method: as §1, §2
A further experiment concerns U937. In words: MTS assay, U937. It counts as cell-based. Particulars: Homo sapiens, U-937, 72 h, read-out: IC50 from MTS assay. The protocol:
as §1, §2

Another experiment deals with porcine brain tubulin. In words: Tubulin polymerization assay. Particulars: at 10 μM concentration. It counts as biochemical. Here is the method: In vitro tubulin polymerization assay was performed by using the Tubulin Polymerization Assay Kit (Cytoskeleton, Inc., Denver, Colo.) in a 96-well format, which used the polymerization of porcine brain tubulin in vitro in the presence of varying concentrations of the test compounds. Fluorescence measurements were obtained at 1-minute intervals over a 31-minute period. Fluorescent measurements were performed using excitation at 365 nm, and emission was measured at 440 nm using a Packard Fusion Alpha Microplate Analyzer. Data were analyzed as relative fluorescent units by GraphPad Prism 5 Demo.

In the case of `COc1ccc(Sc2cnc(NC(=O)CCc3cccnc3)s2)cc1` [Compound 70, N-[5-(4-Methoxy-phenylsulfanyl)-thiazol-2-yl]-3-pyridin-3-yl-propionamide], in the experiment with KB cell, the inhibition at 10 µM turned out to be 78.5%. Further, the “binding rate (%) (colchicine competitive-binding)” value in the experiment with biotinylated tubulin stood at 92.9%. The concentration for half-maximal inhibition (IC50) in the experiment on A375 was 34.6 nM; with MDA-MB-231, 182 nM; in the experiment with Colo205, 68.2 nM; in the experiment on H1975 it was 141 nM; in the experiment with A549 it was 58 nM; with U937, 23.2 nM. Also, the “Inhibition rate (%) of tubulin polymerization” value in the experiment with porcine brain tubulin was found to be 59.6%.
